Article PMC7316778 (Nature Communications, 2020)
Where “and” joins values, the source holds several entries; their conditions need not be identical. Equal entries are not always repeated. Where two headings read alike, the source gives them in different places.

Key:
[1] = molecular target: AMPK A2/B1/G1 (Homo sapiens, UniProt P54646); assay: SelectScreen kinase assay
Description: (§1) Selectivity profiling assays were performed by the Invitrogen SelectScreen™ Services. […] The concentration of ATP was selected to be equal to the KM, unless indicated otherwise.

[2] = molecular target: BMPR1B (ALK6) (Homo sapiens, UniProt O00238); assay: SelectScreen kinase assay
Description: as §1

[3] = molecular target: CDK5/p25 (Homo sapiens, UniProt Q00535); assay: SelectScreen kinase assay; details: 1 h, 1 μM WEL028, 1 h preincubation
Description: as §1

[4] = molecular target: EPHA6 (Homo sapiens, UniProt Q9UF33); assay: SelectScreen kinase assay
Description: as §1

[5] = molecular target: FER^WT (Homo sapiens, UniProt P16591); assay: In vitro TR-FRET kinase assay
[6] = molecular target: GSK3B (GSK3 beta) (Homo sapiens, UniProt P49841); assay: SelectScreen kinase assay
GSK3B (GSK3 beta), sequence (P49841 whole entry): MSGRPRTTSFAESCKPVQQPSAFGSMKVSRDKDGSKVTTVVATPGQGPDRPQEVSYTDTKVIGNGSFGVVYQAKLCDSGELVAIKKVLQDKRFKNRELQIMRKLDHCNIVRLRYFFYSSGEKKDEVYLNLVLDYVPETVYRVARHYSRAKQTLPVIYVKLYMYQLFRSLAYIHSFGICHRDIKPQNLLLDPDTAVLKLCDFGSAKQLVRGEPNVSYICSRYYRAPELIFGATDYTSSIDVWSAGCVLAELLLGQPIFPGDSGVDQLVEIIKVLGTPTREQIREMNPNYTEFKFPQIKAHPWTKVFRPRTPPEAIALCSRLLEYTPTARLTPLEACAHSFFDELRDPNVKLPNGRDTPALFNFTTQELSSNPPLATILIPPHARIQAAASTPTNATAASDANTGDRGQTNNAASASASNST
Description: as §1

[7] = tested on: FES^S700C HL-60 neutrophils; assay: Neutrophil oxidative burst assay (NBT); format: cell-based, human
[8] = tested on: FES^S700C HL-60 cells; assay: CD11b surface expression, neutrophil differentiation; format: cell-based, human; details: 100 nM; Supplementary Figure 12c; individual replicates; listed as WEL028
[9] = molecular target: T1, PDK1 (Homo sapiens, UniProt O15530); assay: SelectScreen kinase assay
T1 sequence (O15530 1-556): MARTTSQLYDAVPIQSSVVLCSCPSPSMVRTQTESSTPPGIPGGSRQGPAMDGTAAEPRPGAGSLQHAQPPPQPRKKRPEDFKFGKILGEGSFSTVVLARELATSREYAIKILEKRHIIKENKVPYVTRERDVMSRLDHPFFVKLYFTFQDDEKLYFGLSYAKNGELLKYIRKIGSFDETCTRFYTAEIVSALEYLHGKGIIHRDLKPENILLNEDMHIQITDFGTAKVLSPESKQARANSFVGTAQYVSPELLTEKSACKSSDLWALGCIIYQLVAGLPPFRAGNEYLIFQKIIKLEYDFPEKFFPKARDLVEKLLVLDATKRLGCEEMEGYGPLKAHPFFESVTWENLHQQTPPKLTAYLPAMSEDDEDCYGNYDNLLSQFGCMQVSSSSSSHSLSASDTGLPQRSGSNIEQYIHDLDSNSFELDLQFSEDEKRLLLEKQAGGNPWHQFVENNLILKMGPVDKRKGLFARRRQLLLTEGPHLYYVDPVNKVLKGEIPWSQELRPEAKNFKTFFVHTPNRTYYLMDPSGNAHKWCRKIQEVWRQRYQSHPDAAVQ
Description: as §1

[10] = molecular target: MAPK1 (ERK2) (Homo sapiens, UniProt P28482); assay: SelectScreen kinase assay
MAPK1 (ERK2), sequence (P28482 whole entry): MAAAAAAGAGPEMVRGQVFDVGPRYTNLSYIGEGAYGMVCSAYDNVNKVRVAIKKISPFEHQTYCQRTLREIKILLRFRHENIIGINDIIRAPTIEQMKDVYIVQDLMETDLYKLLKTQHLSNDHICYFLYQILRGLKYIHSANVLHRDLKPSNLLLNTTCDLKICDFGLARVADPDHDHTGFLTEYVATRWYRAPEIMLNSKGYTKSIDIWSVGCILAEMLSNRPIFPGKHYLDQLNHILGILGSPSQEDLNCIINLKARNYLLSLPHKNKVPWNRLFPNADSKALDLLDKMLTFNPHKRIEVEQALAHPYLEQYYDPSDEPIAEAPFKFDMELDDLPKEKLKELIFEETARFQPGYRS
Description: as §1

[11] = molecular target: NTRK2 (TRKB) (Homo sapiens, UniProt Q16620); assay: SelectScreen kinase assay
NTRK2 (TRKB), sequence (Q16620 32-822): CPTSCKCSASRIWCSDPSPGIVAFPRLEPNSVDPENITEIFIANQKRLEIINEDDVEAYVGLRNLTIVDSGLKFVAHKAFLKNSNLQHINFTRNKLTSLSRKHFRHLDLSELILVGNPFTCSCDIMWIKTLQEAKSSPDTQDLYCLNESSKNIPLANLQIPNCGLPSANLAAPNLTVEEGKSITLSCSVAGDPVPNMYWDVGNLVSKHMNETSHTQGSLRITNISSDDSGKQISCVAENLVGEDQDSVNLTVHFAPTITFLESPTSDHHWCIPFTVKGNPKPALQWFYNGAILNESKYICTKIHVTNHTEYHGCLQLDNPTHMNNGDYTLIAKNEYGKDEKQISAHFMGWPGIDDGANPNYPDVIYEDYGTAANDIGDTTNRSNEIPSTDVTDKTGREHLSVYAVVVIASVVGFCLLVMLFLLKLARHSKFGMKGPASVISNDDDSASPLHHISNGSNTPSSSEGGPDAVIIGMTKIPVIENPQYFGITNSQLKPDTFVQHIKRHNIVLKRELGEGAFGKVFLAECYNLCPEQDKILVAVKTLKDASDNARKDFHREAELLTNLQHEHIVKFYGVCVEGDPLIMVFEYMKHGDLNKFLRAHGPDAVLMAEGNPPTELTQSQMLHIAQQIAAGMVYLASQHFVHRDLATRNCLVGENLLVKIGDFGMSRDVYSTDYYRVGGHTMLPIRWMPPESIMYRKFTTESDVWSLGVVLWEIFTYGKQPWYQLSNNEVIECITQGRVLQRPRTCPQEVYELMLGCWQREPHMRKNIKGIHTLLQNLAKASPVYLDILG
Description: as §1

[12] = molecular target: T2, EPHB2 (Homo sapiens, UniProt P29323); assay: SelectScreen kinase assay; details: for Inhibition at 1 µM (%): EPHB2, ZLYTE, ATP Km app
T2 sequence (P29323 19-1055): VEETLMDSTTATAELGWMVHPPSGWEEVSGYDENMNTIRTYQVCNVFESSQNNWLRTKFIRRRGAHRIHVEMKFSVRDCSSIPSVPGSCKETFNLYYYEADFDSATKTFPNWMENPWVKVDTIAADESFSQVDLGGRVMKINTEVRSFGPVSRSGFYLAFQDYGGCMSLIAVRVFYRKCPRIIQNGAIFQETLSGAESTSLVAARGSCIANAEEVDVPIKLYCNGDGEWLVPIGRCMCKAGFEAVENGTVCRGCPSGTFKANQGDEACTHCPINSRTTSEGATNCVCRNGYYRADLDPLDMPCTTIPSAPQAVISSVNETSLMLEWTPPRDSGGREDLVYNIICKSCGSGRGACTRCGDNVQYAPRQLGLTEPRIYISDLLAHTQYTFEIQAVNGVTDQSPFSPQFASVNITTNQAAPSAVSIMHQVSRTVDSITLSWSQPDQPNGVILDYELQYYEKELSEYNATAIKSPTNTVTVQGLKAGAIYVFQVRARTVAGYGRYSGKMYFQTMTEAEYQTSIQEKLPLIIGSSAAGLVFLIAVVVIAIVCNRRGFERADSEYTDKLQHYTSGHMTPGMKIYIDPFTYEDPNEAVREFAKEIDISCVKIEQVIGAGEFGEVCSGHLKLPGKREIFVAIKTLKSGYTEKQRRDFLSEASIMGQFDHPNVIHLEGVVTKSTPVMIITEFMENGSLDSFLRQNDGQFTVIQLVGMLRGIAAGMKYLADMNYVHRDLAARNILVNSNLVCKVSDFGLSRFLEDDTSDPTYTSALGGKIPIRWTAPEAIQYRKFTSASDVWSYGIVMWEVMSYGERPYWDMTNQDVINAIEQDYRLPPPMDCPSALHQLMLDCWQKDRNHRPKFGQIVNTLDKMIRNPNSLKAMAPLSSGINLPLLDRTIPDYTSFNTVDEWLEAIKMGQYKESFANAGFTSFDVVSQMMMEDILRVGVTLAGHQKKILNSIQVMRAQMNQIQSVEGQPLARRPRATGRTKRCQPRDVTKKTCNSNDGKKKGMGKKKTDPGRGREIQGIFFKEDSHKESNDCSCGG
Description: as §1

[13] = molecular target: ALK (Homo sapiens, UniProt Q9UM73); assay: SelectScreen kinase assay
ALK (Homo sapiens, UniProt Q9UM73), sequence (Q9UM73 19-1620, species assumed): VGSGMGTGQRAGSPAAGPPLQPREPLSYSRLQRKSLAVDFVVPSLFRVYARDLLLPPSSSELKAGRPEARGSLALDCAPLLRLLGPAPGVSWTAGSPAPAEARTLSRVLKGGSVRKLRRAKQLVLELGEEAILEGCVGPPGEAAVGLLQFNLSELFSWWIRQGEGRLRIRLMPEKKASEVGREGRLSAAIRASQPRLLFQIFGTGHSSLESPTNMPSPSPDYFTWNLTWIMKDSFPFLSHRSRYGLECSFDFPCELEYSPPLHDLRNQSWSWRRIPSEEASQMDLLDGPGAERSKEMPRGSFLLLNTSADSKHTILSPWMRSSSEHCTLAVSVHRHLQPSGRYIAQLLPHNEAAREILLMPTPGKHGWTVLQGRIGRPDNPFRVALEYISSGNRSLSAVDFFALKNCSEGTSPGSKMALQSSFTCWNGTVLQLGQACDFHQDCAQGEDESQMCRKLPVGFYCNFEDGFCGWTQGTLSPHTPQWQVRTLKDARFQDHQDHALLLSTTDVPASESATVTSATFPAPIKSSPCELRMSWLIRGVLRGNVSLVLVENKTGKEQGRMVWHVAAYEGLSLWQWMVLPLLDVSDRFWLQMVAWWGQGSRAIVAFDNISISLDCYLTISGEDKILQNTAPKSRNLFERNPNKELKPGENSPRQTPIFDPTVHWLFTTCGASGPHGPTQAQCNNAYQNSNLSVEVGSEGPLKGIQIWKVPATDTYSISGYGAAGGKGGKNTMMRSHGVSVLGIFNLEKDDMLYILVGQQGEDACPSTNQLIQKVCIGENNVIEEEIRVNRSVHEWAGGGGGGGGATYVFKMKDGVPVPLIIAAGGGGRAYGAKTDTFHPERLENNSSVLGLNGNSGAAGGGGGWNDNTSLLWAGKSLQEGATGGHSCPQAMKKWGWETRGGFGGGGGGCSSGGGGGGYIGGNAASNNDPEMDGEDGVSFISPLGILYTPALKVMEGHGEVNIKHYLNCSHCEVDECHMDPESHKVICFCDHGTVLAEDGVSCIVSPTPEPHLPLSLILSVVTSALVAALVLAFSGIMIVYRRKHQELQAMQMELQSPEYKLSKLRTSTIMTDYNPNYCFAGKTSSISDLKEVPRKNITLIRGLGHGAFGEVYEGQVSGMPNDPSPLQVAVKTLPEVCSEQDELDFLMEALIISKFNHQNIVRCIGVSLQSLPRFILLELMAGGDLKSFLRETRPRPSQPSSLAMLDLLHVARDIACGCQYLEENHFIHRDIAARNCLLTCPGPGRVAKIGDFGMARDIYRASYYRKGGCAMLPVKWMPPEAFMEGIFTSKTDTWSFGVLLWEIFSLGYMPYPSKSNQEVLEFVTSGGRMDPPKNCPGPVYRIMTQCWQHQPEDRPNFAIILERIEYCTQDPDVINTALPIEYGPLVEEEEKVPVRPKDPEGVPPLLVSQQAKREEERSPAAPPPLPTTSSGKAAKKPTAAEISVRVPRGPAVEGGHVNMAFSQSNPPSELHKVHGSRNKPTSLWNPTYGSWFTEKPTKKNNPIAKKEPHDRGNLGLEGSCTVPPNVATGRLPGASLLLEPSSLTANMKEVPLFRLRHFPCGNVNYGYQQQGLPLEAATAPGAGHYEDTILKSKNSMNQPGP
Description: as §1

[14] = tested on: ALK; assay: SelectScreen kinase assay; details: IC50 on that kinase divided by IC50 on FES^S700C
Description: as §1

[15] = molecular target: MAPK9 (JNK2) (Homo sapiens, UniProt P45984); assay: SelectScreen kinase assay
MAPK9 (JNK2), sequence (P45984 whole entry): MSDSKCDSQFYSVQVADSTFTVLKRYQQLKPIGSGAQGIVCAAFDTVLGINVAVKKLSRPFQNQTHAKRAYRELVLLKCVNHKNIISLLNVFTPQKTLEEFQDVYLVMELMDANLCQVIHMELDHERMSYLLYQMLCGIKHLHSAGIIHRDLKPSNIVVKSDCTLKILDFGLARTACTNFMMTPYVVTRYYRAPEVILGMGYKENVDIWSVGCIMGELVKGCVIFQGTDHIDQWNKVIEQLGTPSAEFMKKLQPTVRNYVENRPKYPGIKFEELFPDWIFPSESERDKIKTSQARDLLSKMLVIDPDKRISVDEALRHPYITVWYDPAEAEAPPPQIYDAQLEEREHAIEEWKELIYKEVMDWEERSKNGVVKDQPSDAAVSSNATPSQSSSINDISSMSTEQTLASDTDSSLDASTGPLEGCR
Description: as §1

[16] = molecular target: CDK5/p35 (Homo sapiens, UniProt Q00535); assay: SelectScreen kinase assay
CDK5/p35, sequence (Q00535 whole entry): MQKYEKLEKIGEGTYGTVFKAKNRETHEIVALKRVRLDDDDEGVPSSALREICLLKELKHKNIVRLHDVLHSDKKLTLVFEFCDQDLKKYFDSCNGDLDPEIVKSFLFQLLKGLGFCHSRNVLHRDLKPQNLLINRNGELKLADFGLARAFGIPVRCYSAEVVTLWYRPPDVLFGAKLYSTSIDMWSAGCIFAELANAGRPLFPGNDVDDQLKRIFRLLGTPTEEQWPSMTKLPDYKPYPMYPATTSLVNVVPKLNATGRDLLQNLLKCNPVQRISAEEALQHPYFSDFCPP
CDK5/p35, sequence (Q15078 whole entry partner): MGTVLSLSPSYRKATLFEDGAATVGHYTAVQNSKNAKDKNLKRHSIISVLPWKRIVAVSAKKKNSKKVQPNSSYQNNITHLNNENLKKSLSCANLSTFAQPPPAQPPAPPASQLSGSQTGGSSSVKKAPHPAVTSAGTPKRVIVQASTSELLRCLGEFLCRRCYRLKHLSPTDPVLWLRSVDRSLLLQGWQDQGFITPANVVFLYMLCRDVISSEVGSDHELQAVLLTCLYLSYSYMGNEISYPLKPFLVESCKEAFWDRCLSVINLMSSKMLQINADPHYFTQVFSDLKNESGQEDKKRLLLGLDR
Description: as §1

[17] = 1 h, 1 μM WEL028, 1 h preincubation
[18] = read-out: Inhibition at 1 µM (%)

BMPR1B (ALK6), sequence (O00238 14-502): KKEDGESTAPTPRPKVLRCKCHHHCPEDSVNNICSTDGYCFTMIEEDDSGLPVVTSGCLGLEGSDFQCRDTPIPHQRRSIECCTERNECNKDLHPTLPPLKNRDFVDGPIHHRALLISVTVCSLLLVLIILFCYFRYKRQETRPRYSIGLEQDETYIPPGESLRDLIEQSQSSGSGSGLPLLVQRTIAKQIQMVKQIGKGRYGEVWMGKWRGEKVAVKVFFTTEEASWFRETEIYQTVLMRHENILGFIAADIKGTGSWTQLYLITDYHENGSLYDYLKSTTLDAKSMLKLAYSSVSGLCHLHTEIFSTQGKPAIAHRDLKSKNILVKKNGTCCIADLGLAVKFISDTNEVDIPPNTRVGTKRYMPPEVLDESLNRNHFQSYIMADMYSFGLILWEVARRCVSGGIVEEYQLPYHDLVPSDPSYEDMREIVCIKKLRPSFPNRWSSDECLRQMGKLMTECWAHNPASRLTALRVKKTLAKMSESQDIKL

`C#CCOc1ccc(Nc2ncc(Cl)c(Nc3ccccc3NC(=O)C=C)n2)c(OC)c1` [Compound 6] was tested, and the inhibition at 1 µM [1, 17] was 4%, the “Inhibition at 1 µM (%)” value ([1]; AMPK A2/B1/G1, 1 µM, ZLYTE, ATP Km app) was -2% and the inhibition at 1 µM ([2]; 1 h) was 24%. The inhibition at 1 µM [2, 18] was 24%, the inhibition at 1 µM [3] was 2% and the inhibition at 1 µM [4, 17] was 6%. For the same molecule, the inhibition at 1 µM ([4]; read-out: Inhibition at 1 µM (%), EPHA6, 1 µM, LanthaScreen Binding) was 5%, the IC50 [5] was 501 nM and the inhibition at 1 µM [6, 17] was 4%. For the same molecule, the inhibition at 1 µM ([6]; read-out: Inhibition at 1 µM (%), GSK3B (GSK3 beta), 1 µM, ZLYTE, ATP Km app) was 5%, the “Formazan-positive cells (%)” value ([7]; 100 nM, Supplementary Figure 12f, individual replicates, listed as WEL028) was 79.976% and 78.7671% and 73.0614% and the “Percentage of formazan-positive cells” value ([7]; WEL028 prior to PMA stimulation) was “did not affect”. For the same molecule, the “CD11b-positive cells (%)” value [8] was 93.1005% and 92.0572% and 93.2155%, the inhibition at 1 µM [9, 17] was 36% and the “Inhibition at 1 µM (%)” value ([9]; PDK1, 1 µM, ZLYTE, ATP 100, listed as WEL028, 1 µM) was 35%. For the same molecule, the inhibition at 1 µM ([9]; read-out: Inhibition at 1 µM (%), PDK1, 1 µM, ZLYTE, ATP 100) was 36%, the inhibition at 1 µM ([10]; 1 h) was 26% and the inhibition at 1 µM [10, 18] was 26%. The inhibition at 1 µM [11, 17] was 5%, the “Inhibition at 1 µM (%)” value ([11]; NTRK2 (TRKB), 1 µM, ZLYTE, ATP Km app, listed as WEL028, 1 µM) was 0% and 9% and the “Inhibition (%)” value ([12]; 1 μM WEL028, 1 h preincubation) was 4%. For the same molecule, the “Inhibition at 1 µM (%)” value [12] was 2%, the “Inhibition at 1 µM (%)” value ([12]; listed as WEL028, 1 µM) was 5% and the IC50 [13] was 126 nM. For the same molecule, the inhibition at 1 µM [13, 17] was 89%, the inhibition at 1 µM ([13]; read-out: Inhibition at 1 µM (%), ALK, 1 µM, ZLYTE, ATP Km app) was 90% and the Apparent fold selectivity [14] was 28 fold. The “Inhibition (%)” value ([15]; 1 μM WEL028, 1 h preincubation) was 2%, the “Inhibition at 1 µM (%)” value ([15]; MAPK9 (JNK2), 1 µM, ZLYTE, ATP 100, listed as WEL028, 1 µM) was -1% and 5% and the inhibition at 1 µM [16, 17] was -4%. The “Inhibition at 1 µM (%)” value ([16]; CDK5/p35, 1 µM, ZLYTE, ATP Km app, listed as WEL028, 1 µM) was -8% and 0%.
